These results are taken from ChEMBL document CHEMBL1148221, “Constituents of Senecio chionophilus with potential antitubercular activity” (2004).

The MIC is the least concentration at which growth counts as inhibited. Low values mean a more susceptible organism, high ones a less susceptible organism.

Converted amounts (≈) assume the structure as drawn.

The test system of this experiment is Mycobacterium tuberculosis. Description: Antitubercular activity against Mycobacterium tuberculosis H37Rv ATCC 27294 by microplate Alamar blue assay. Format: functional.

For `C/C=C(/C)C(=O)O[C@@H]1c2c(C)coc2C(=O)[C@@H]2[C@@H](O)CC[C@H](C)[C@@]12C`, the MIC was found to be 114 µg/mL (≈ 329 µM). The same measure for `CCC(C)C(=O)O[C@@H]1c2c(C)coc2C(=O)[C@@H]2[C@@H](O)CC[C@H](C)[C@@]12C` (some centres not stated): 119 µg/mL (≈ 342 µM); for `CC(=O)c1ccc(O)cc1` [4-HYDROXYACETOPHENONE]: 121 µg/mL (≈ 889 µM); for `C=C(C)[C@@H]1CC[C@]2(C(=O)O)CC[C@]3(C)[C@H](CC[C@@H]4[C@@]5(C)CC[C@H](O)C(C)(C)[C@@H]5CC[C@]43C)[C@@H]12` [BETULINIC ACID]: 32 µg/mL (≈ 70.1 µM). `CC1(C)CC[C@]2(C(=O)O)CC[C@]3(C)C(=CC[C@@H]4[C@@]5(C)CC[C@H](O)C(C)(C)[C@@H]5CC[C@]43C)[C@@H]2C1` [OLEANOLIC_ACID]: the minimum inhibitory concentration (MIC) was found to be 64 µg/mL (≈ 140 µM). `CO[C@H]1/C=C/O[C@@]2(C)Oc3c(C)c(O)c4c(O)c(c(/C=N/N5CCN(C)CC5)c(O)c4c3C2=O)NC(=O)/C(C)=C\C=C\[C@H](C)[C@H](O)[C@@H](C)[C@@H](O)[C@@H](C)[C@H](OC(C)=O)[C@@H]1C` [RIFAMPIN] gave an MIC of 0.03 µg/mL (≈ 0.0365 µM). For `C[C@H]1[C@H](C)CC[C@]2(C(=O)O)CC[C@]3(C)C(=CC[C@@H]4[C@@]5(C)CC[C@H](O)C(C)(C)[C@@H]5CC[C@]43C)[C@H]12` [URSOLIC ACID], 32 µg/mL (≈ 70.1 µM) was the least that counted as inhibitory (MIC).
